Series [1] deals with T1, PI3Kα (p110α/p85α) (Homo sapiens, UniProt P42336).
T1 construct: N-terminal histidine-tagged recombinant full-length human p110α; His tag (N); made in house; host or cells: Baculovirus-infected Sf9 insect cells
Nature of the series: PI3Kα fluorescence polarization assay. The series is classed as biochemical. The note with it: 10 μM ATP. As to the method: (a) An In Vitro Assay which Determines the Ability of a Test Compound to Inhibit PI3Kα.
Activity of PI3Kα was measured using fluorescence polarization assay. PI3Kα, a complex of N-terminal histidine-tagged recombinant full-length human p110α and untagged recombinant full length human p85α were coexpressed in a Baculovirus infected Sf9 cell expression system. (GenBank Accession No. for p110α, U79143; for p85α, XM—043865). The proteins are purified by one-step affinity chromatography using glutathione-agarose. A competition assay was performed to measure the amount of PIP3 generated from PIP2 in the presence of purified recombinant PI3Kα (p110α/p85α). PI3K a was incubated with 10 μM PIP2 substrate in the reaction buffer (20 mM HEPES, pH 7.5, 10 mM NaCl, 4 mM MgCl2, 2 mM DTT, 10 μM ATP and 1% DMSO) for 1 hour at 30° C. The reaction product was then mixed with a PIP3 detector protein and the fluorescent PIP3 probe. Polarization (mP) values decrease as fluorescent probe binding to the PIP3 detector is displaced by PIP3 produced by enzymatic activity and the amount of unbound fluorescent probe in the mixture increases. Polarization degrees (mP) value was determined using microplate reader with background subtraction.
On the technique in general: In fluorescence polarisation assays a small probe gives low polarisation when free and higher when bound to something large.

Series [2] concerns HDACs (HeLa cell nuclear extracts). Nature of the series: HDAC enzymatic activity, Biomol Color de Lys system. It is filed as biochemical. An outline of the steps:
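IC50 from sigmoidal dose-response fits of fluorescence (Ex 350–380, Em 440–460 nm). Compounds in DMSO dilution series incubated 1 h at 25 °C with HeLa nuclear extract HDACs and colorimetric substrate, pH 8.0 Tris/Cl buffer with NaCl, KCl, MgCl2, before developer termination.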

Series [3] relates to MDA-MB-231 cells. Briefly: Cell proliferation assay Method B, MDA-MB-231. The note with it: Homo sapiens, Breast, Method B, 72 hours, read-out: antiproliferative activity IC50, MDA-MB-231 (second listing, r32). The series is classed as cell-based. How it is done:
(§1) Cancer cell lines were plated at 5,000 to 10,000 per well in 96-well flat bottomed plates with various concentration of compounds. The cells were incubated with compounds for 72 hours in the presence of 0.5% of fetal bovine serum. Growth inhibition was accessed by adenosine triphosphate (ATP) content assay using Promega CellTiter-Glo kit. Promega CellTiter-Glo kit is an ATP monitoring system based on firefly luciferase. Briefly, 16 μl of mammalian cell lysis and substrate solution was added to 84 μl of culture medium per well to lyse the cells and stabilize the ATP. The mixture was shaken and incubated for 30 minutes and subsequently the luminescence was measured.

The subject of series [4] is HCC1500 cells. Briefly: Cell proliferation assay Method B, HCC1500. The note with it: Breast, 72 hours, read-out: antiproliferative activity IC50, HCC1500. It is filed as cell-based. As to the method:
as §1

Series [5] deals with HCC1806 cells. Briefly: Cell proliferation assay Method B, HCC1806. The series is classed as cell-based. The note with it: Homo sapiens, Breast, 72 hours, read-out: antiproliferative activity IC50, HCC1806. As to the method:
as §1

For series [6], the system named is SKBr3 cells. Nature of the series: Cell proliferation assay Method B, SKBr3. It is filed as cell-based. The note with it: Homo sapiens, SK-BR-3, Breast, 72 hours, read-out: antiproliferative activity IC50, SKBr3. How it is done: as §1
In series [7] the test system is BT474 cells. Briefly: Cell proliferation assay Method B, BT474. It is filed as cell-based. The note with it: Homo sapiens, BT-474; Breast; Method B; 72 hours; read-out: antiproliferative activity IC50, BT474. An outline of the steps:
(§2)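 Growth inhibition is determined from cellular ATP levels, measured by luciferase luminescence, following a 72-hour compound treatment in 0.5% fetal bovine serum.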

The subject of series [8] is MDA-MB-361 cells. Briefly: Cell proliferation assay Method B, MDA-MB-361. The series is classed as cell-based. The note with it: Homo sapiens, Breast, 72 hours, read-out: antiproliferative activity IC50, MDA-MB-361. How it is done: as §1
For series [9], the system named is UACC-893 cells. Nature of the series: Cell proliferation assay Method B, UACC-893. The series is classed as cell-based. The note with it: Homo sapiens, Breast, 72 hours, read-out: antiproliferative activity IC50, UACC-893. As to the method:
as §1

Series [10] relates to MDA-MB-453 cells. Briefly: Cell proliferation assay Method B, MDA-MB-453. The series is classed as cell-based. The note with it: Homo sapiens, Breast, 72 hours, read-out: antiproliferative activity IC50, MDA-MB-453. How it is done:
as §1

Series [11] has as its system MCF-7 cells. Briefly: Cell proliferation assay Method B, MCF-7. The note with it: Homo sapiens, MCF7, Breast, 72 hours, read-out: antiproliferative activity IC50, MCF-7. It is filed as cell-based. As to the method:
as §1

Series [12] deals with T47D cells. Nature of the series: Cell proliferation assay Method B, T47D. It is filed as cell-based. The note with it: Homo sapiens, Breast, 72 hours, read-out: antiproliferative activity IC50, T47D. How it is done: as §1
The subject of series [13] is ZR-75-1 cells. Briefly: Cell proliferation assay Method B, ZR-75-1. The series is classed as cell-based. The note with it: Homo sapiens, Breast, 72 hours, read-out: antiproliferative activity IC50, ZR-75-1. As to the method:
as §1

In series [14] the test system is MDA-MB-468 cells. Briefly: Cell proliferation assay Method B, MDA-MB-468. The series is classed as cell-based. The note with it: Homo sapiens, Breast, Method B, 72 hours, read-out: antiproliferative activity IC50, MDA-MB-468. In outline: as §2
Series [15] has as its system MOLT-4 cells. Briefly: Cell proliferation assay Method B, MOLT-4. The note with it: Homo sapiens, ALL, 72 hours, read-out: antiproliferative activity IC50, MOLT-4. The series is classed as cell-based. How it is done: as §1
Series [16] concerns SUP-B15 cells. Nature of the series: Cell proliferation assay Method B, SUP-B15. The series is classed as cell-based. The note with it: Homo sapiens, ALL, 72 hours, read-out: antiproliferative activity IC50, SUP-B15. How it is done:
as §1

For series [17], the system named is HL-60 cells. Briefly: Cell proliferation assay Method B, HL-60. The note with it: Homo sapiens, AML, 72 hours, read-out: antiproliferative activity IC50, HL-60. It is filed as cell-based. How it is done: as §1
The test system of series [18] is U937 cells. Nature of the series: Cell proliferation assay Method B, U937. The note with it: Homo sapiens, U-937, AML, 72 hours, read-out: antiproliferative activity IC50, U937. It is filed as cell-based. As to the method:
as §1

Series [19] deals with THP-1 cells. Nature of the series: Cell proliferation assay Method B, THP-1. The series is classed as cell-based. The note with it: Homo sapiens, AML, 72 hours, read-out: antiproliferative activity IC50, THP-1. As to the method: as §1
In series [20] the test system is MV-4-11 cells. Nature of the series: Cell proliferation assay Method B, MV-4-11. The series is classed as cell-based. The note with it: Homo sapiens, MV4-11, AML, 72 hours, read-out: antiproliferative activity IC50, MV-4-11. As to the method: as §1
Series [21] deals with Pfeiffer cells. Briefly: Cell proliferation assay Method B, Pfeiffer. It is filed as cell-based. The note with it: Homo sapiens, NHL, 72 hours, read-out: antiproliferative activity IC50, Pfeiffer. How it is done:
as §1

For series [22], the system named is Raji cells. Nature of the series: Cell proliferation assay Method B, Raji. The series is classed as cell-based. The note with it: Homo sapiens, NHL, 72 hours, read-out: antiproliferative activity IC50, Raji. How it is done: as §1
For series [23], the system named is Daudi cells. Briefly: Cell proliferation assay Method B, Daudi. The series is classed as cell-based. The note with it: Homo sapiens, NHL, 72 hours, read-out: antiproliferative activity IC50, Daudi. How it is done: as §1
Series [24] has as its system K562 cells. Nature of the series: Cell proliferation assay Method B, K562. The note with it: Homo sapiens, CML, 72 hours, read-out: antiproliferative activity IC50, K562. The series is classed as cell-based. As to the method:
as §1

Series [25] concerns MEG-01 cells. Briefly: Cell proliferation assay Method B, MEG-01. It is filed as cell-based. The note with it: Homo sapiens, CML, 72 hours, read-out: antiproliferative activity IC50, MEG-01. As to the method: as §1
Series [26] has as its system RPMI-8226 cells. Briefly: Cell proliferation assay Method B, RPMI-8226. It is filed as cell-based. The note with it: Homo sapiens, Multiple Myeloma, Method B, 72 hours, read-out: antiproliferative activity IC50, RPMI-8226. In outline: as §2
Series [27] deals with ARH77 cells. Nature of the series: Cell proliferation assay Method B, ARH77. The series is classed as cell-based. The note with it: Homo sapiens, ARH-77, Multiple Myeloma, 72 hours, read-out: antiproliferative activity IC50, ARH77. As to the method:
as §1

For series [28], the system named is L1210 cells. Briefly: Cell proliferation assay Method B, L1210. It is filed as cell-based. The note with it: Mouse LL, 72 hours, read-out: antiproliferative activity IC50, L1210. How it is done: as §1
Series [29] has as its system P388 D1 cells. Briefly: Cell proliferation assay Method B, P388 D1. The note with it: P388D1, Mouse Lymphoma, 72 hours, read-out: antiproliferative activity IC50, P388 D1. It is filed as cell-based. As to the method:
as §1

This note sets out measurements from US8906909B2 (Curis, Inc., priority 2009, dated 2014).

One may read the IC50 as the point on the concentration scale where inhibition reaches its midpoint. For orientation: melting point means the temperature, or range, at which the solid turns liquid.

T1 sequence (P42336 whole entry): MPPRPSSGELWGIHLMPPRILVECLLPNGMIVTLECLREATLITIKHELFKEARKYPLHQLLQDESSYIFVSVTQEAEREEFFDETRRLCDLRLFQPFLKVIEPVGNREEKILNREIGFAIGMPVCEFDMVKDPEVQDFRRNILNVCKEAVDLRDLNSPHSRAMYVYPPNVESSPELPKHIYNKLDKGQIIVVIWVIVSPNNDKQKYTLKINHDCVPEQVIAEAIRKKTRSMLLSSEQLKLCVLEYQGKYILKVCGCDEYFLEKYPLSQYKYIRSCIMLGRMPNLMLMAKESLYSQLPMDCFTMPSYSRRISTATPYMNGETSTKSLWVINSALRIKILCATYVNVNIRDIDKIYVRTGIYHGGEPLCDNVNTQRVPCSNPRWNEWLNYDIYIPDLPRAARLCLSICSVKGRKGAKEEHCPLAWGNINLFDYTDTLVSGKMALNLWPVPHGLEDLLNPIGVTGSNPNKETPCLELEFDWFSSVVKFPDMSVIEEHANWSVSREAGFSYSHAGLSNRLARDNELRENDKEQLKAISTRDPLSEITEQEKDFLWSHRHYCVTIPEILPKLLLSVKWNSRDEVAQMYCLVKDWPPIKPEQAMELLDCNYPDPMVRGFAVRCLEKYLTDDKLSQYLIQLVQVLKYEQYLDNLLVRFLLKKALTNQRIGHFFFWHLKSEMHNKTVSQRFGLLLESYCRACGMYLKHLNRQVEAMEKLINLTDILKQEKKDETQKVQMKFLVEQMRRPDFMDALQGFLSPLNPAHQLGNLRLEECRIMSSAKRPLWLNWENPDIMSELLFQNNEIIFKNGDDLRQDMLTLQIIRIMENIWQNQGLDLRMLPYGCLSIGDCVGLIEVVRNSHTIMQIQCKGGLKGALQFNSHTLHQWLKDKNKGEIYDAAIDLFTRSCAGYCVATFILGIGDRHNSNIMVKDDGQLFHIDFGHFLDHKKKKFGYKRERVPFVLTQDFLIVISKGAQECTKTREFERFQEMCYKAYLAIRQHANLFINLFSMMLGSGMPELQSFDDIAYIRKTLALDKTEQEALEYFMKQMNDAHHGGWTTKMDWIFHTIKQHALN
T1 sequence (P27986 whole entry partner): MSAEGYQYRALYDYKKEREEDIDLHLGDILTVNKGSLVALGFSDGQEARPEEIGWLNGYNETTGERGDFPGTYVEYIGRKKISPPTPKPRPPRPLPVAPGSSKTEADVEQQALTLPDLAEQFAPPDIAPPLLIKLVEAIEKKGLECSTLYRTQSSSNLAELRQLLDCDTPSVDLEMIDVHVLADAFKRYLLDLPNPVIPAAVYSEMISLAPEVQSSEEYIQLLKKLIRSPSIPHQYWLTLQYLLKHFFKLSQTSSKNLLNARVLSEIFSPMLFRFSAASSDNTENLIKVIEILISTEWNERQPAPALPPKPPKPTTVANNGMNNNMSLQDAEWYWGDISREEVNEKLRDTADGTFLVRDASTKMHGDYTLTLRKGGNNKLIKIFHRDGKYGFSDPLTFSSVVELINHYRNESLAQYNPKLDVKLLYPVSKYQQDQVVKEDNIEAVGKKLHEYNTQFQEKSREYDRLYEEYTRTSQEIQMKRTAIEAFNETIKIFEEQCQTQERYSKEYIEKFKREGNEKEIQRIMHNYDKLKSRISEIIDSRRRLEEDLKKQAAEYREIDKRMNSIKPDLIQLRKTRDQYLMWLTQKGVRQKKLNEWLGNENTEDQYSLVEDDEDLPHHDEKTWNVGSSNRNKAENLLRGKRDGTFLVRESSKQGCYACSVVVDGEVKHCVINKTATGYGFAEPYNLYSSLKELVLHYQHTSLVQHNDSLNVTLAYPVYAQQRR

As to `CS(=O)(=O)N1CCN(Cc2cc3nc(-c4cccc5c4cnn5CCCCCC(=O)NO)nc(N4CCOCC4)c3s2)CC1` [Compound 4], the melting point lay within 186 to 187 °C. Besides, the IC50 in series [1] was more than 10000 nM. The compound also displayed an IC50 in [2] of less than 100 nM.
Turning to `COc1ccc(-c2nc(N3CCOCC3)c3sc(CN(C)c4ncc(C(=O)NO)cn4)cc3n2)cn1` [Compound 236, N-Hydroxy-2-(((2-(6-methoxypyridin-3-yl)-4-morpholinothieno[3,2-d]pyrimidin-6-yl)methyl)(methyl)amino)pyrimidine-5-carboxamide], the IC50 is less than 100 nM in series [2]; 10 to 100 nM in series [3]; less than 10 nM in [4]; 10 to 100 nM in [5]; 10 to 100 nM in series [6]; less than 10 nM in series [7]. The IC50 in [8] was less than 10 nM; in [9], 10 to 100 nM; in series [10] it was less than 10 nM; in [11], less than 10 nM; in [12], 10 to 100 nM; in series [13], 10 to 100 nM. Also, the IC50 in [14] is 10 to 100 nM; in series [15] it was less than 10 nM; in series [16] it was less than 10 nM; in [17], less than 10 nM; in series [18] it was less than 10 nM; in series [19], 10 to 100 nM. Further, the IC50 in series [20] was less than 10 nM; in [21] it was less than 10 nM; in [22], 10 to 100 nM; in series [23], 10 to 100 nM; in [24], 100 to 1000 nM; in [25], 10 to 100 nM. For the same compound, the IC50 is less than 10 nM in series [26], 10 to 100 nM in series [27], 10 to 100 nM in series [28] and 10 to 100 nM in series [29].
